The values below come from US20260284422A1, “BRAIN TUMOR TREATMENT OR PREVENTION OF RECURRENCE WITH LOW INTENSITY AND VARIABLE FREQUENCY MAGNETIC STIMULATION” (ACTIPULSE NEUROSCIENCE INC., priority 2023, published 2026).

This series can be described thus: Evans Blue dye uptake into brain (BBB permeability) in mice given rTMS or sham. Type of series: in vivo, wild-type C57BL/6 mice. The source says: An in vivo mouse model was used to evaluate the use of rTMS to open the BBB. Ten wild-type C57BL/6 mice where anesthetized and received an intravenous (IV) injection of a 2% Evans Blue dye (in a vehicle of 0.9% NaCl). Evans Blue dye (also referred to as EBD or T-1824) is a non-toxic, azo-based injectable dye that presents visually with a dark blue/brown color. The dye has an affinity for serum albumin and is generally used to assess the permeability of the BBB in vivo. Most tissues will present darker, but neural tissue generally remains unstained. Mice injected with Evans Blue dye were then administered rTMS or a sham treatment and a histological analysis of the brain was performed to evaluate changes in permeability of the BBB. rTMS was administered according to Table 1.
The dye was administered as 100 μL 2% Evans blue (in 0.9% NaCl) via retro orbital injection. Mice were then administered rTMS or a sham (no magnetic field), e.g., as shown in the method overview depicted in FIGS. 2 and 3 for either 1 hr. or 30 min. Mice were euthanized, perfused with 10 mL PBS to expel blood from the organs, and analyzed for the presence of hemorrhage and lesion, e.g., as shown in the representative imaging in FIG. 3. Mice presented as lacking hemorrhage, lesion, or any signs of tissue damage.
Brains were then submerged in 20% sucrose for 2 hr. and embedded in optimal cutting temperature compound (OCT compound) and frozen. The brain was then sectioned at 16 μm thickness, rinsed with PBS, and mounted for scanning at 40× magnification. Section imaging was performed using a digital slide scanner.
An imaging software was used to evaluate the pixelate density and area of staining in brain sections for calculating a comparison of Evans Blue dye uptake into the brain tissue.

Each structure is given as a SMILES string.

Consider `Cc1cc(-c2ccc(/N=N/c3ccc4c(S(=O)(=O)O)cc(S(=O)(=O)O)c(N)c4c3O)c(C)c2)ccc1/N=N/c1ccc2c(S(=O)(=O)O)cc(S(=O)(=O)O)c(N)c2c1O` [Evans Blue, Evans Blue dye], for which the “Mean area of brain section stained with Evans Blue, rTMS group” value (100 μL 2% Evans blue retro-orbital, then rTMS, 16 μm brain sections, n=4) was determined as 11.12 mm^2. Moreover, for the setting “100 μL 2% Evans blue retro-orbital, then sham (no magnetic field), 16 μm brain sections, n=4”, the “Mean area of brain section stained with Evans Blue, sham group” value is on record as 5.665 mm^2. Moreover, the “Difference between means ± SEM of stained area (rTMS vs sham)” value (unpaired t-test, P 0.004, n=4 per group) is 5.456 ± 1.209 mm^2.
